In brackets after ≈: the same amount, converted by molar mass. Positions of bridges follow the written chain, without caps; N, C: chain ends. Non-standard residues stand in square brackets, D forms with d. Residues, ends and D or L forms follow the SMILES beside them. Groups on a side chain read outwards from the residue. *: point of attachment. Palmitoyl(16-(5-tetrazolyl)) = O=C(CCCCCCCCCCCCCCCc1nnn[nH]1)*; Lys(CH2CO2H)2 = N[C@@H](CCCCN(CC(=O)O)CC(=O)O)C(=O)O; X1 = O=C(O)CCCCCCCCCCCCCCCCC(=O)NCCOCCOCCN*; C16 diacid = O=C(O)CCCCCCCCCCCCCCC(=O)*; Orn = NCCC[C@H](N)C(=O)O; Dab = NCC[C@H](N)C(=O)O; AEEA = NCCOCCOCC(=O)O
Assay: physchem
Experimental: From a stock solution in vehicle, either H2O or 10 mM phosphate, containing 1 mg (as weighed) compound per ml, 8-11 aliquots are withdrawn and pH-adjusted individually with HCl/NaOH, to cover the whole pH range.

[1] = pH 6.7, Solubility Conc., pH 6.7, vehicle 10 mM phosphate
[2] = pH 7.2, Solubility Conc., pH 7.2, vehicle 10 mM phosphate
[3] = pH 8.1, Solubility Conc., pH 8.1, vehicle 10 mM phosphate

SMILES: CC(=O)N[C@H]1CC(=O)NCCC[C@@H](C(=O)N2CCC[C@H]2C(=O)N2CCC[C@H]2C(=O)N[C@@H](CCCNC(=N)N)C(=O)N[C@@H](CC(=O)O)C(=O)N[C@@H](CCCCN(CC(=O)O)CC(=O)O)C(=O)N[C@@H](CCCCNC(=O)COCCOCCNC(=O)CCCCCCCCCCCCCCCc2nnn[nH]2)C(N)=O)NC(=O)[C@H](Cc2c[nH]c3ccccc23)NC(=O)[C@H](CCCNC(=N)N)NC(=O)[C@@H](Cc2ccccc2)NC(=O)[C@H](Cc2c[nH]cn2)NC1=O [Example 2, Ac-c[Asp-His-D-Phe-Arg-Trp-Orn]-Pro-Pro-Arg-Asp-Lys(biscarboxymethyl)-Lys[(2-{2-[16-(tetrazol-5-yl)hexadecanoylamino]ethoxy}ethoxy)acetyl]-NH2] (Ac-DH[dF]RW[Orn]PPRD[Lys(CH2CO2H)2]K([AEEA-Palmitoyl(16-(5-tetrazolyl))])-NH2; lactam 1-6)
- solubility (pH 5.8, Solubility Conc.): 21 µM (≈ 45.9 µg/mL)
- solubility (pH 6.4, Solubility Conc.): 26 µM (≈ 56.9 µg/mL)
- solubility (pH 7, Solubility Conc.): 67 µM (≈ 146 µg/mL)
- solubility (pH 7.2, Solubility Conc.): 172 µM (≈ 376 µg/mL)
- solubility (pH 7.3, Solubility Conc.): 267 µM (≈ 584 µg/mL)
- solubility (pH 7.4, Solubility Conc.): 465 µM (≈ 1020 µg/mL)
- solubility (pH 7.6, Solubility Conc.): 454 µM (≈ 993 µg/mL)
- solubility (pH 7.9, Solubility Conc.): 458 µM (≈ 1000 µg/mL)

SMILES: CC(=O)N[C@H]1CCNC(=O)C[C@@H](C(=O)N2CCC[C@H]2C(=O)N[C@@H](CO)C(=O)N[C@@H](CO)C(=O)N[C@@H](CO)C(=O)N[C@@H](CCCCN(CC(=O)O)CC(=O)O)C(=O)N[C@@H](CO)C(=O)N[C@@H](CO)C(=O)NCCOCCOCCNC(=O)CCCCCCCCCCCCCCCCC(=O)O)NC(=O)[C@H](Cc2c[nH]c3ccccc23)NC(=O)[C@H](CCCNC(=N)N)NC(=O)[C@@H](Cc2ccccc2)NC(=O)[C@H](Cc2c[nH]cn2)NC1=O [Example 3, Ac-c[Dab-His-D-Phe-Arg-Trp-Asp]-Pro-Ser-Ser-Ser-Lys(biscarboxymethyl)-Ser-Ser-NH(2-{2-[2-(17-carboxyheptadecanoylamino)ethoxy]ethoxy}ethyl)] (Ac-[Dab]H[dF]RWDPSSS[Lys(CH2CO2H)2]SS-X1; lactam 1-6)
- solubility (pH 4.9, Solubility Conc., pH 4.9, vehicle 10 mM phosphate): 24 µM (≈ 50.1 µg/mL)
- solubility (pH 5.6, Solubility Conc., pH 5.6, vehicle 10 mM phosphate): 32 µM (≈ 66.8 µg/mL)
- solubility (pH 6.1, Solubility Conc., pH 6.1, vehicle 10 mM phosphate): 54 µM (≈ 113 µg/mL)
- solubility [1]: 154 µM (≈ 321 µg/mL)
- solubility (pH 6.9, Solubility Conc., pH 6.9, vehicle 10 mM phosphate): 295 µM (≈ 616 µg/mL)
- solubility (pH 7.1, Solubility Conc., pH 7.1, vehicle 10 mM phosphate): 396 µM (≈ 827 µg/mL)
- solubility [2]: 401 µM (≈ 837 µg/mL)
- solubility (pH 7.4, Solubility Conc., pH 7.4, vehicle 10 mM phosphate): 396 µM (≈ 827 µg/mL)
- solubility (pH 7.7, Solubility Conc., pH 7.7, vehicle 10 mM phosphate): 345 µM (≈ 720 µg/mL)
- solubility [3]: 360 µM (≈ 751 µg/mL)

SMILES: CC(=O)N[C@H]1CCCNC(=O)CC[C@@H](C(=O)N2CCC[C@H]2C(=O)N2CCC[C@H]2C(=O)N[C@@H](CCCNC(=N)N)C(=O)N[C@@H](CC(=O)O)C(=O)N[C@@H](CCCCN(CC(=O)O)CC(=O)O)C(=O)N[C@@H](CCCCNC(=O)COCCOCCNC(=O)CCCCCCCCCCCCCCCc2nnn[nH]2)C(N)=O)NC(=O)[C@H](Cc2c[nH]c3ccccc23)NC(=O)[C@H](CCCNC(=N)N)NC(=O)[C@@H](Cc2ccccc2)NC(=O)[C@H](Cc2c[nH]cn2)NC1=O [Example 8, Ac-c[Orn-His-D-Phe-Arg-Trp-Glu]-Pro-Pro-Arg-Asp-Lys(biscarboxymethyl)-Lys[(2-{2-[16-(tetrazol-5-yl)hexadecanoylamino]ethoxy}ethoxy)acetyl]-NH2] (Ac-[Orn]H[dF]RWEPPRD[Lys(CH2CO2H)2]K([AEEA-Palmitoyl(16-(5-tetrazolyl))])-NH2; lactam 1-6)
- solubility (pH 6.5, Solubility Conc.): 35 µM (≈ 77 µg/mL)
- solubility (pH 6.8, Solubility Conc.): 44 µM (≈ 96.8 µg/mL)
- solubility (pH 7, Solubility Conc.): 91 µM (≈ 200 µg/mL)
- solubility (pH 7.2, Solubility Conc.): 268 µM (≈ 590 µg/mL)
- solubility (pH 7.3, Solubility Conc.): 482 µM (≈ 1060 µg/mL)
- solubility (pH 7.4, Solubility Conc.): 551 µM (≈ 1210 µg/mL)
- solubility (pH 7.5, Solubility Conc.): 538 µM (≈ 1180 µg/mL)
- solubility (pH 7.6, Solubility Conc.): 582 µM (≈ 1280 µg/mL)
- solubility (pH 7.8, Solubility Conc.): 556 µM (≈ 1220 µg/mL)

SMILES: CC(=O)N[C@H]1CCCNC(=O)C[C@@H](C(=O)N2CCC[C@H]2C(=O)N[C@@H](CO)C(=O)N[C@@H](CO)C(=O)N[C@@H](CO)C(=O)N[C@@H](CCCCN(CC(=O)O)CC(=O)O)C(=O)N[C@@H](CO)C(=O)N[C@@H](CO)C(=O)N[C@@H](CCCCNC(=O)COCCOCCNC(=O)CCCCCCCCCCCCCCC(=O)O)C(N)=O)NC(=O)[C@H](Cc2c[nH]c3ccccc23)NC(=O)[C@H](CCCNC(=N)N)NC(=O)[C@@H](Cc2ccccc2)NC(=O)[C@H](Cc2c[nH]cn2)NC1=O [Example 12, Ac-c[Orn-His-D-Phe-Arg-Trp-Asp]-Pro-Ser-Ser-Ser-Lys(biscarboxymethyl)-Ser-Ser-Lys({2-[2-(15-carboxypentadecanoylamino)ethoxy]ethoxy}acetyl)-NH2] (Ac-[Orn]H[dF]RWDPSSS[Lys(CH2CO2H)2]SSK([AEEA-C16 diacid])-NH2; lactam 1-6)
- solubility (pH 4.8, Solubility Conc., pH 4.8, vehicle 10 mM phosphate): 228 µM (≈ 505 µg/mL)
- solubility (pH 5.8, Solubility Conc., pH 5.8, vehicle 10 mM phosphate): 300 µM (≈ 665 µg/mL)
- solubility (pH 6.3, Solubility Conc., pH 6.3, vehicle 10 mM phosphate): 400 µM (≈ 886 µg/mL)
- solubility [1]: 431 µM (≈ 955 µg/mL)
- solubility (pH 7, Solubility Conc., pH 7.0, vehicle 10 mM phosphate): 426 µM (≈ 944 µg/mL)
- solubility [2]: 479 µM (≈ 1060 µg/mL)
- solubility (pH 7.5, Solubility Conc., pH 7.5, vehicle 10 mM phosphate): 405 µM (≈ 897 µg/mL)
- solubility (pH 7.8, Solubility Conc., pH 7.8, vehicle 10 mM phosphate): 480 µM (≈ 1060 µg/mL)
- solubility [3]: 439 µM (≈ 973 µg/mL)

— US20130012432A1, “Peptides for Treatment of Obesity” (Novo Nordisk A/S, priority 2010, published 2013)
